Data from patent publication US8071793B2, “Macrolide compound” (National University Corporation Hokkaido University, priority 2006, dated 2011).
Values after ≈ are worked out from the molar mass of the structure shown.

How the values were obtained:
[1] = system: Human BuRkitt's lymphoma cell line (DG-75, ATCC No. CRL-2675); test: Proliferation inhibition of human Burkitt's lymphoma cell line DG-75 (Cell Counting Kit-8); assay type: cell-based; conditions: DG-75 cells, 72 hours culture, Cell Counting Kit-8, absorbance 450 nm; for IC50: Homo sapiens, read-out: IC50 (compound concentration with a proliferation-inhibition rate of 50%), DG-75
Experimental: (§1) Human BuRkitt's lymphoma cell line (DG-75, ATCC No. CRL-2675) or human Burkitt's lymphoma cell line (Raji, ATCC No. CRL-86) was suspended in an RPMI-1640 medium (SIGMA) (hereinafter called culture solution) containing 10% calf serum (Moregate) and 10% fetal bovine serum (Hyclone) so as to set the cell number at 1×10^5/mL. After 50 μL of the cell suspension was added to a 96-well microplate, 49 μL of the above culture solution was added thereto to set the whole volume at 99 μL. Compounds represented by Formulae (6) to (11) that solved in DMSO, 5-FU (Wako) or doxorubicin (Wako) (all 0.0001 to 10 μg/mL) were each added to one well by 1 μL, and cultured with a CO2 concentration of 5% at 37° C. for 72 hours. After culturing, 10 μL of Wako cell Counting Kit-8 (Wako) was added to each well and subjected to color reaction in a CO2 incubator for 3 hours. Proliferation-inhibition rate was calculated from absorbance values measured with a microplate reader at 450 nm (reference wavelength: 620 nm) using the following expression to determine a compound concentration in a culture solution with a proliferation-inhibition rate of 50% as IC50 value.

[2] = system: human Burkitt's lymphoma cell line (Raji, ATCC No. CRL-86); test: Proliferation inhibition of human Burkitt's lymphoma cell line Raji (Cell Counting Kit-8); assay type: cell-based; conditions: Raji cells, 72 hours culture, Cell Counting Kit-8, absorbance 450 nm; for IC50: Homo sapiens, read-out: IC50 (compound concentration with a proliferation-inhibition rate of 50%), Raji
Experimental: as §1

[3] = system: Meth A fibrosarcoma cells; test: Anticancer activity in mice with transplanted Meth A fibrosarcoma cells (tumor weight); assay type: in vivo, Balb/c mouse; conditions: for Proliferation-inhihition rate (%): 1/3 of the whole volume at 7th, 9th and 11th days, tumor weight at 21st day, female Balb/c mouse
Experimental: A compound represented by Formula (8) (50 to 500 μg/kg) that solved in ethanol or 5-FU (10 mg/kg) was administered to an 8-week old female Balb/c mouse (Japan SLC) having approx. 1×10^5 of Meth A fibrosarcoma cells (Kitasato Institute) intraperitoneally transplanted therein by ⅓ of the whole volume at 7th, 9th and 11th days intravenously (but 5-FU administered intraperitoneally) to measure tumor weight at 21st day. Using a control mouse to which normal saline solution was administered in lieu of a test compound, anticancer activity on each compound was expressed in number according to a formula of proliferation-inhibition rate (%)=(1−(sample/blank))×100.

[4] = Solubility in solvents (physicochemical description); conditions: qualitative, organic solvents and water

## O=c1[nH]cc(F)c(=O)[nH]1 [Compound 5-FU, 5-FU, reference compound]
[1]
  IC50 (compound concentration with a proliferation-inhibition rate of 50%), DG-75: 0.9 µg/mL
[2]
  IC50 (compound concentration with a proliferation-inhibition rate of 50%), Raji: 3.0 µg/mL
[3]; 10000 μg/kg (10 mg/kg), intraperitoneally
  Proliferation-inhihition rate (%): 60.2%

## C=C1/C=C(\C)C(C)CC(O)CC(=O)C(O)C(O)C(C)CC(C)OC(=O)C(C)C(O)CCCCC2OC2CC(C)C1 (stereo not drawn) [Compound 6]
[1]
  IC50: 0.02 µg/mL (≈ 0.0353 µM)
[4]
  Solubility: soluble in alcohol, chloroform, ethyl acetate and acetone, insoluble in hexane and water

## C=C1/C=C(\C)C(C)CC(O)CC(=O)C(O)C(O)C(C)CC(C)OC(=O)/C(C)=C/CCCCC2OC2CC(C)C1 (stereo not drawn) [Compound 7]
[1]
  IC50: 0.4 µg/mL (≈ 0.729 µM)
[4]
  Solubility: soluble in alcohol, chloroform, ethyl acetate and acetone, insoluble in hexane and water

## C=C1CC2C/C=C/C(O)C(C)/C(C)=C\C(=O)OC(CC(C)C(C)O)C(C)C/C=C/C(C)(O)C(O)(C1)O2 (stereo not drawn) [Compound 8]
[1]
  IC50: 0.002 µg/mL (≈ 0.00395 µM)
[2]
  IC50: 0.003 µg/mL (≈ 0.00592 µM)
[3]; 50 μg/kg, intravenously
  Proliferation-inhihition rate (%): 5.3%
[3]; 200 μg/kg, intravenously
  Proliferation-inhihition rate (%): 62.2%
[3]; 500 μg/kg, intravenously
  Proliferation-inhihition rate (%): 54.3%
[3]; Meth A fibrosarcoma mouse model, Formula (8) administered with a lower concentration than 5-FU
  Proliferation-inhibition rate (anticancer activity) compared with 5-FU: almost the same proliferation-inhibition rate (anticancer activity) as 5-FU
[4]
  Solubility: soluble in chloroform, acetone, ethyl acetate, ethanol and methanol, insoluble in water and hexane

## C/C1=C/C(=O)C(C)(O)/C=C/CC(C)C(CC(C)C(C)O)OC(=O)/C=C(/C)C(C)C(O)/C=C/CC(O)C1 (stereo not drawn) [Compound 9]
[1]
  IC50: 0.9 µg/mL (≈ 1.78 µM)
[4]
  Solubility: soluble in chloroform, acetone, ethyl acetate and ethanol, insoluble in water and hexane

## C=C(C(O)CC)C(C)C(O)C1CCC/C(C)=C/C2OC(CC2C)C2OC(CC/C=C/CCC(C)C(=O)O1)CC2O (stereo not drawn) [Compound 10]
[1]
  IC50: 0.006 µg/mL (≈ 0.0107 µM)
[2]
  IC50: 0.01 µg/mL (≈ 0.0178 µM)
[4]
  Solubility: soluble in chloroform, acetone, ethyl acetate and ethanol, insoluble in water and hexane

## C/C=C/C/C=C/C(C)CC(O)C1CC2OC2/C=C/C(O)C(O)/C=C/CC(C)CC(=O)O1 (stereo not drawn) [Compound 11]
[1]
  IC50: 0.08 µg/mL (≈ 0.184 µM)
[2]
  IC50: 0.05 µg/mL (≈ 0.115 µM)
[4]
  Solubility: soluble in chloroform, acetone, ethyl acetate and ethanol, insoluble in water and hexane

## COc1cccc2c1C(=O)c1c(O)c3c(c(O)c1C2=O)C[C@@](O)(C(=O)CO)C[C@@H]3O[C@H]1C[C@H](N)[C@H](O)[C@H](C)O1 [Doxorubicin, doxorubicin, reference compound]
[1]
  IC50: 0.04 µg/mL (≈ 0.0736 µM)
[2]
  IC50: 0.02 µg/mL (≈ 0.0368 µM)
